Source: patent US7118921B1, “Incorporation and applications of biomolecular interactions within a carrier” (McMaster University, priority 1999, dated 2006)

Tested on: melittin and intact BCaM:melittin complex
Format: binding, bovine

SMILES: CN1CCN(CCCN2c3ccccc3Sc3ccc(C(F)(F)F)cc32)CC1 [TFP, trifluoperazine]
- Effect on emission wavelength and anisotropy of the intact complex or of melittin: not affected
- Effect on intensity of melittin or the intact complex: large decrease in intensity
